Results on twelve molecules are retold here after PMC8074679, “Synthesis and pharmacological characterization of glucopyranosyl-conjugated benzyl derivatives as novel selective cytotoxic agents against colon cancer” (Royal Society Open Science, 2021).

For data set [1], the system named is HCT-116 cells. Kind of data set: MTS cytotoxicity assay, HCT-116. The following applies: for IC50: read-out: IC50 (μM) HCT-116; for selectivity: ratio of cytotoxicity against 293T cells over cytotoxicity against HCT-116 cells. In general terms: Tetrazolium dyes change colour on reduction, which living cells bring about.
Description: (§3) HCT-116 cells were cultured in McCoy's 5a Modified Medium (Gibco, USA). […] Both media contain 10% fetal bovine serum (Gibco, USA) and 1% penicillin–streptomycin (Gibco, USA). Cells were maintained in incubator (Thermo Fisher, USA) supplied with 5% CO2 at 37°C. Only cells in logarithmic phase were used in all following experiments.
(§4) In brief, cells were seeded into 96-well plate (Corning, USA) with a density of 3000 cells/well for 24 h, and then treated with tested compounds at various concentrations for 72 h.
In another data set the test system is 293T cells. Kind of data set: MTS cytotoxicity assay, 293T (model of normal cells). The following applies: read-out: IC50 (μM) 293T.
Data set [2] deals with HCT-116 cells. As to the kind of experiment: Live cell imaging of confluence area (Incucyte). Type of data set: cell-based, human. How it is done: (§1) Thus, it was further studied to understand its underlying antiproliferation mechanism. The confluence areas of HCT-116 cells treated with various concentrations of compound 8d were detected by a live cell analysis imaging system.
Cells were seeded into 24-well plate (1 × 10^4 cells well^−1) for 24 h. Different concentrations of compound 8d were added to treat cells. Time-lapse photography of cells was recorded by Incucyte system. The confluences relative to total well area were calculated using a module of the cell confluence area analysing.

The subject of data set [3] is HCT-116 cells. Kind of data set: Colony formation assay. The following applies: pre-treatment 24 h with various concentrations, 9 days culture after withdrawal. In kind it is cell-based, human. How it is done: as §1
HCT-116 cells were seeded in 6-well plates at a density of 300 cells per well and cultured overnight, and then treated with various concentrations of compound 8d for 24 h. Cells were continuously cultured for 9 days after drug withdrawal. Finally, 1% crystal violet was used to stain cells after fixing with 4% paraformaldehyde, and the visible colonies were recorded by the microscope and counted manually using imageJ.

Data set [4] relates to HCT-116 cells. Kind of data set: Hoechst 33258 staining. In kind it is cell-based, human. The following applies: 5 µM, 48 or 72 h. How it is done: (§2) Next, the type of cell death induced by compound 8d was investigated. […] Annexin V/PI staining assay were carried out to analyse the apoptotic rate of HCT-116 cells.
HCT-116 cells were seeded in coverslips for 24 h, and then compound 8d was incubated at a concentration of 5 µM for 48 or 72 h. Cells were incubated with Hoechst 33258 (Sigma, USA) in the dark at room temperature for 30 min after being fixed with 4% paraformaldehyde. The nuclear morphology of apoptosis was observed by fluorescence microscope (Olympus, Japan).

For data set [5], the system named is HCT-116 cells. As to the kind of experiment: TUNEL assay. In kind it is cell-based, human. The following applies: 5 µM, 72 h. How it is done: as §2
TdT-UTP nick end-labelling (TUNEL) assay was used to detect the apoptotic cells by in situ cell death detection kit (Roche, Germany) according to the manufacturer's instruction. Briefly, HCT-116 cells were seeded on coverslips and cultured overnight, following treatment with compound 8d (5 µM) for 72 h, then fixed with 4% paraformaldehyde for 30 min and permeabilized with 0.1% Triton X-100 for 2 min on ice. TUNEL reaction mixture was applied to the cells in an atmosphere for 1 h at 37°C in the dark, following with converter-POD and DAB substrate treatment. Samples were detected by a microscope (Olympus, Japan).

The subject of data set [6] is HCT-116 cells. As to the kind of experiment: Annexin V staining in living cells. Type of data set: cell-based, human. The following applies: 5 µM, 72 h. The method, then: as §2
Cells that seed on coverslips were treated with compound 8d (5 µM) for 72 h. Annexin V-FITC was used to target exposed phosphatidylserine which is a marker of early apoptosis. The nucleus of living cells was labelled by Hoechst 33258. The cells were observed by fluorescence microscope (Olympus, Japan).

The subject of data set [7] is HCT-116 cells. As to the kind of experiment: Annexin V/PI double staining, flow cytometry. In kind it is cell-based, human. The following applies: 2.5 and 5 µM. How it is done:
as §2
Cells were seeded in 6-well plates with a density of 5 × 10^5 cells per well and then treated with various concentrations of compound 8d (0 µM, 2.5 µM and 5 µM) for 48 h. Cells were collected and stained with annexin V and PI for 20 min, and then detected by flow cytometer (BD, USA) to analyse the apoptotic cell distribution. Living cells (annexin V^−/PI^−), early apoptotic cells (annexin V^+/PI^−), late apoptotic cells (annexin V^+/PI^+) and necrotic cells (annexin V^−/PI^+) were calculated in the Cell Quest software (BD, USA).
(In general: A flow cytometer gives signals particle by particle.)

The mark [8] stands for this setting: MTS assay, 72 h treatment, mean ± s.d.

SMILES strings stand for the structures. Like-named read-outs stand apart in the source and are kept apart here.

As a reminder, the IC50 is the concentration at which inhibition is half-maximal.

Description for 293T cells: as §3, §4

In the case of `CC(=O)OC[C@H]1OC(OC(C)=O)[C@H](n2cc(CO)nn2)[C@@H](OC(C)=O)[C@@H]1OC(C)=O` (stereo partly drawn) [Compound 8a, 1-(1,3,4,6-Tetra-O-acetyl-D-glucopyranosyl)-4-hydroxymethyl-[1,2,3]-triazole], the IC50 with HCT-116 cells [1] (Homo sapiens, HCT-116, 72 h) is > 50 µM; in the data set with 293T cells (Homo sapiens, HEK-293T, 72 h) it was > 50 µM. The “cytotoxicity / antiproliferation activity towards HCT-116 (in words)” value in the data set with HCT-116 cells [1] (MTS assay) is “fairly weak”.
As for `CC(=O)OC[C@H]1OC(OC(C)=O)[C@H](n2cc(COCc3ccc(Cl)cc3)nn2)[C@@H](OC(C)=O)[C@@H]1OC(C)=O` (stereo partly drawn) [Compound 8f, 1-(1,3,4,6-Tetra-O-acetyl-D-glucopyranosyl)-4-(4-chlorobenzene)hydryloxymethyl-[1,2,3]-triazole], the IC50 in the data set on HCT-116 cells [1] (Homo sapiens, HCT-116, 72 h) was 7.04 ± 0.06 µM; with 293T cells (Homo sapiens, HEK-293T, 72 h), 22.41 ± 0.05 µM. Further, the selectivity in the data set on HCT-116 cells [1] was found to be 3.18.
Regarding `CC(=O)OC[C@H]1OC(OC(C)=O)[C@H](N)[C@@H](OC(C)=O)[C@@H]1OC(C)=O` (stereo partly drawn) [AOAG, reference compound], the IC50 in the data set on HCT-116 cells [1] (setting [8]) and in the data set on 293T cells (setting [8]) was > 200 µM in each case.
With `OCc1ccccc1` [Compound 6b, reference compound], the IC50 in the data set with HCT-116 cells [1] (Homo sapiens, HCT-116, 72 h) is > 200 µM; with 293T cells (Homo sapiens, HEK-293T, 72 h), > 200 µM.
`COc1ccc(COCc2cn([C@H]3C(OC(C)=O)O[C@H](COC(C)=O)[C@@H](OC(C)=O)[C@@H]3OC(C)=O)nn2)cc1` (stereo partly drawn) [Compound 8d, 1-(1,3,4,6-Tetra-O-acetyl-D-glucopyranosyl)-4-(4-methoxybenzene)hydryloxymethyl-[1,2,3]-triazole]: the “proliferation of HCT-116 cells (confluence area)” value in the data set with HCT-116 cells [2] (10 µM, for at least 72 h) is listed as “completely inhibited”. Further, the “proliferation of HCT-116 cells (confluence area), dose dependence” value in the data set with HCT-116 cells [2] (various concentrations) was “dose-dependently inhibited the proliferation”. Also, the “colony formation of HCT-116” value in the data set with HCT-116 cells [3] is recorded as “inhibited the colony formation of HCT-116 by a dose-dependent manner”. In addition, the “apoptotic DNA fragmentation, Hoechst 33258 staining” value in the data set with HCT-116 cells [4] is recorded as “Apoptotic DNA fragmentation”. Besides, the “DNA fragmentation, TUNEL assay” value in the data set on HCT-116 cells [5] was “DNA fragmentation emerged”. The “Annexin V-FITC staining on cellular membranes of living cells” value with HCT-116 cells [6] is “Annexin-V-positive staining emerged on cellular membranes”. Besides, the “induction of apoptosis, Annexin V/PI assay (in words)” value in the data set on HCT-116 cells [7] is “dose-dependently induced early apoptosis and late apoptosis”. The IC50 in the data set with HCT-116 cells [1] (Homo sapiens, HCT-116, 72 h) was determined as 2.88 ± 0.32 µM; with 293T cells (Homo sapiens, HEK-293T, 72 h), 31.35 ± 0.1 µM. Moreover, in the data set on HCT-116 cells [1] (MTS assay), the “cytotoxicity / antiproliferation activity towards HCT-116 (in words)” value is “comparable to 5-FU”. The selectivity in the data set on HCT-116 cells [1] is listed as 10.89.
Turning to `CC(=O)OC[C@H]1OC(OC(C)=O)[C@H](n2cc(COCc3ccc(Br)cc3)nn2)[C@@H](OC(C)=O)[C@@H]1OC(C)=O` (stereo partly drawn) [8 g, 1-(1,3,4,6-Tetra-O-acetyl-D-glucopyranosyl)-4-(4-bromobenzene)hydryloxymethyl-[1,2,3]-triazole], the IC50 with HCT-116 cells [1] (Homo sapiens, HCT-116, 72 h) turned out to be 4.55 ± 0.23 µM; in the data set on 293T cells (Homo sapiens, HEK-293T, 72 h), 11.7 ± 0.16 µM. In addition, the selectivity in the data set on HCT-116 cells [1] stood at 2.56.
Turning to `CC(=O)OC[C@H]1OC(OC(C)=O)[C@H](n2cc(COCc3ccc(C(F)(F)F)cc3)nn2)[C@@H](OC(C)=O)[C@@H]1OC(C)=O` (stereo partly drawn) [8 h, 1-(1,3,4,6-Tetra-O-acetyl-D-glucopyranosyl)-4-(4-trifluoromethylbenzene)hydryloxymethyl-[1,2,3]-triazole], the IC50 turned out to be 14.3 ± 2.18 µM with HCT-116 cells [1] (Homo sapiens, HCT-116, 72 h) and 6.09 ± 0.42 µM in the data set with 293T cells (Homo sapiens, HEK-293T, 72 h). In the data set with HCT-116 cells [1], the selectivity is 0.42.
For `O=c1[nH]cc(F)c(=O)[nH]1` [Compound 5-FU, 5-Fluorouracil, reference compound], in that order: 3.62 ± 1.22 µM, 9.13 ± 1.63 µM and 2.52.
For `CC(=O)OC[C@H]1OC(OC(C)=O)[C@H](n2cc(COCc3ccc(F)cc3)nn2)[C@@H](OC(C)=O)[C@@H]1OC(C)=O` (stereo partly drawn) [Compound 8e, 1-(1,3,4,6-Tetra-O-acetyl-D-glucopyranosyl)-4-(4-fluorobenzene)hydryloxymethyl-[1,2,3]-triazole], in that order: 4.17 ± 0.06 µM, 8.1 ± 0.08 µM and 1.94.
Consider `CC(=O)OC[C@H]1OC(OC(C)=O)[C@H](n2cc(COCc3ccc([N+](=O)[O-])cc3)nn2)[C@@H](OC(C)=O)[C@@H]1OC(C)=O` (stereo partly drawn) [Compound 8i, 1-(1,3,4,6-Tetra-O-acetyl-D-glucopyranosyl)-4-(4-nitrobenzene)hydryloxymethyl-[1,2,3]-triazole], for which the IC50 with HCT-116 cells [1] (Homo sapiens, HCT-116, 72 h) amounted to 17.3 ± 3.86 µM; in the data set with 293T cells (Homo sapiens, HEK-293T, 72 h) it was 8 ± 0.77 µM. Besides, the selectivity in the data set on HCT-116 cells [1] is reported as 0.46.
For `CC(=O)OC[C@H]1OC(OC(C)=O)[C@H](n2cc(COCc3ccc(C)cc3)nn2)[C@@H](OC(C)=O)[C@@H]1OC(C)=O` (stereo partly drawn) [Compound 8c, 1-(1,3,4,6-Tetra-O-acetyl-D-glucopyranosyl)-4-(4-methylbenzene)hydryloxymethyl-[1,2,3]-triazole], in that order: 6.4 ± 0.2 µM, 19.57 ± 0.13 µM and 3.06.
For `CC(=O)OC[C@H]1OC(OC(C)=O)[C@H](N=[N+]=[N-])[C@@H](OC(C)=O)[C@@H]1OC(C)=O` (stereo partly drawn) [Compound 4, 1,3,4,6-Tetra-O-acetyl-2-azido-2-deoxy-D-glucose, reference compound], in that order: 97.5 ± 1.58 µM, 46.9 ± 2.93 µM and 0.48.
